# In patent US9686971B2, “Methods for testing anti-thrombotic agents” (The Trustees of Columbia University in the City of New York, priority 2006, dated 2017):
# How the values were obtained:
# murine αIIbβ3 = target: T1, murine αIIbβ3 (Mus musculus, UniProt O54890+Q9QUM0); settings: cited from earlier work
# T1 sequence (Q9QUM0 32-1033): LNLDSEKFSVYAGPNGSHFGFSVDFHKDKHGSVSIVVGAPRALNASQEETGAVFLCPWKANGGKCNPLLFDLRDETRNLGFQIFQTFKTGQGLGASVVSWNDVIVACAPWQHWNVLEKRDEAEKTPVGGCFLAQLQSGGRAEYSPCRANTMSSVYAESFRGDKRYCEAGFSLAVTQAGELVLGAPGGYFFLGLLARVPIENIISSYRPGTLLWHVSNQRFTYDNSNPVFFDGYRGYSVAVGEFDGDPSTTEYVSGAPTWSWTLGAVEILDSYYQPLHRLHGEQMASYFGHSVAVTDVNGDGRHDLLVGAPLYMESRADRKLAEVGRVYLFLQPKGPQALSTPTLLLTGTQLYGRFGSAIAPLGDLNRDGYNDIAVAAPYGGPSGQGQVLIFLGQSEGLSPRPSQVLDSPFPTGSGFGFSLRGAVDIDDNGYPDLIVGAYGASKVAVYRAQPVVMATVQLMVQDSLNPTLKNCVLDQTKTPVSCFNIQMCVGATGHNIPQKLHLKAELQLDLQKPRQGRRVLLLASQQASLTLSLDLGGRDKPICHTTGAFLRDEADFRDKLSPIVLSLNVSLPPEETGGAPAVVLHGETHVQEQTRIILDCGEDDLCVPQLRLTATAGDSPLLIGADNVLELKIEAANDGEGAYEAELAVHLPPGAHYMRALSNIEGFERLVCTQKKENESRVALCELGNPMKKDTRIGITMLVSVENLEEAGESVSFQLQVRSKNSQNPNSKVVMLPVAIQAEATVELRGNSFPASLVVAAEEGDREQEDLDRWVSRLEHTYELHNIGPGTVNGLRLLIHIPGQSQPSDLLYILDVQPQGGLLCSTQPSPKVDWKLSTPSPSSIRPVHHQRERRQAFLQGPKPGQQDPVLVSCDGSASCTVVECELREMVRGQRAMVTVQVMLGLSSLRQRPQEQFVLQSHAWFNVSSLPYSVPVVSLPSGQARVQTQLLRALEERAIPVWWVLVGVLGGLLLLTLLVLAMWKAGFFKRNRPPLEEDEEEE
# T1 sequence (O54890 26-787): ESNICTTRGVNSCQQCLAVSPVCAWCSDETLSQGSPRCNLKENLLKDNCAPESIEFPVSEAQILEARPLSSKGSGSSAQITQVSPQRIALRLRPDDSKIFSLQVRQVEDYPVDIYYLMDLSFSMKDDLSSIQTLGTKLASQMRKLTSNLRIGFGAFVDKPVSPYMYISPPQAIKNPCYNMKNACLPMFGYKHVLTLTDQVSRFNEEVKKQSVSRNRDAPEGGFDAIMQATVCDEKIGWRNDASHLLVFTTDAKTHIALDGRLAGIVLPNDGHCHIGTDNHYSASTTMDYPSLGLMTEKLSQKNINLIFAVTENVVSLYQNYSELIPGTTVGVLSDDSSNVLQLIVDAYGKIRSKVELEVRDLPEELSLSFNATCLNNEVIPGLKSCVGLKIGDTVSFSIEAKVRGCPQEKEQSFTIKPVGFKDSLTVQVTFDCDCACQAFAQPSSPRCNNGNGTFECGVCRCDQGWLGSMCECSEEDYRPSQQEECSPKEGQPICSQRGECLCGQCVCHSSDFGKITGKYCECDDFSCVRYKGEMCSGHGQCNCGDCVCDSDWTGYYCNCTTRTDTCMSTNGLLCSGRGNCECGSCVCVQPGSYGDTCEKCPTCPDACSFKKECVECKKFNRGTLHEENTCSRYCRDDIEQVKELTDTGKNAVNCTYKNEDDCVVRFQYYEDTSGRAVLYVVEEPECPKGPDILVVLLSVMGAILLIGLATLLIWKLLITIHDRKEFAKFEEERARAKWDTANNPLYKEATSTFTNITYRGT
# human platelets = assay: Tail bleeding assay, human platelet-induced hemostasis in homozygous VWF^1326R>H mice; type: in vivo, mouse; settings: for human platelet-induced hemostatic clot / plug formation (words): PLAVIX 50 mg/kg oral day before and 2 h prior, ReoPro 0.25 mg/kg iv bolus then 0.125 μg/kg/min, 5 min after human platelets
# Method: This assay provides an indirect measure of the ability of platelets and VWF to support hemostasis by interacting with the injured vessel wall. It also indirectly determines the function of multiple receptors and ligands on platelets that are required to form a hemostatic plug. […] It is performed by immersing the severed tip (10 mm) of the animal's tail in isotonic saline at 37° C. and monitoring the length of time required for bleeding to cease. Homozygous mutant mice will be infused with an equal volume of either saline or purified human platelets. Platelet specific antibodies or drugs will be administered as described above and their ability to prolong bleeding time evaluated. All experiments will be stopped at 10 min by cauterizing the tail (51).
# Tail cuts were performed 5 min after completion of the infusion of platelets. PLAVIX and ReoPro® were obtained from the research pharmacy at CUMC. For studies involving PLAVIX, animals received a 50 mg/kg oral dose of the drug the day before and 2 h prior to the administration of human platelets.
substance,measurement,setting,value
"abciximab: Fab fragment of the chimeric human-mouse monoclonal antibody 7E3, which blocks the function of αIIbβ3 on human platelets",binding / function of murine αIIbβ3,murine αIIbβ3,does not bind or disrupt the function of murine αIIbβ3
same,human platelet-induced hemostatic clot / plug formation (words),human platelets,completely disrupted
same,human platelet-induced hemostatic clot / plug formation (words),human platelets; listed as ReoPro,prevented the formation of a hemostatic plug
same,mean bleeding time,"human platelets; homozygous VWF^1326R>H mice, given after infusion of human platelets",579 s
